US20120010075A1 (priority 2009, published 2012)

Tested on: Leptosphaeria nodorum (LEPTNO)
Assay: In vitro fungitoxicity of hydrazones with and without copper towards Leptosphaeria nodorum (Example 26)
Type: cell-based
Conditions: Parastagonospora nodorum, 72 h, compound 0.05 μg/mL, copper-minus medium, 72 h at 25° C.; read-out: LEPTNO % Inhn. Minus Copper Observed

Row | SMILES | inhibition of growth at 0.05 µg/mL [%]
1 | O=C(N/N=C/c1cc(Br)cc(Br)c1O)c1ccc(Cl)cc1 [Example 120] | 19.9
2 | O=C(N/N=C/c1cc(Br)cc(Br)c1O)c1cccc(Cl)c1 [Example 122] | 13.5
3 | O=C(Cc1ccc(F)cc1)N/N=C/c1cc(Cl)cc(Cl)c1O [Example 126] | 13.2
4 | C/C(=N\NC(=O)c1ccccc1[N+](=O)[O-])c1ccccc1O [Example 127] | 0
5 | C/C(=N\NC(=O)Cc1ccccc1)c1ccccc1O [Example 128] | 10.8
6 | CC/C(=N\NC(=O)c1ccccc1)c1ccccc1O [Example 130] | 1.2
7 | C/C(=N\NC(=O)c1ccc(Br)cc1)c1cc(Cl)cc(Cl)c1O [Example 139] | 1.7
8 | O=C(N/N=C/c1cc(Br)cc([N+](=O)[O-])c1O)c1ccccc1 [Example 144] | 0
9 | O=C(N/N=C/c1cccc([N+](=O)[O-])c1O)c1ccccc1 [Example 145] | 2.4
10 | COc1ccc(/C=N/NC(=O)c2ccccc2)c(O)c1 [Example 147] | 0
11 | O=C(N/N=C/c1cc(Br)ccc1O)c1ccccc1 [Example 148] | 15.4
12 | COc1cccc(/C=N/NC(=O)c2ccccc2)c1O [Example 149] | 0
13 | O=C(N/N=C/c1cc(Cl)cc([N+](=O)[O-])c1O)c1ccccc1 [Example 150] | 10
14 | O=C(N/N=C/c1cc([N+](=O)[O-])ccc1O)c1ccccc1 [Example 152] | 0
15 | O=C(N/N=C/c1cc([N+](=O)[O-])cc(Br)c1O)c1ccccc1 [Example 153] | 0
16 | COc1ccc(O)c(/C=N/NC(=O)c2ccccc2)c1 [Example 154] | 3.4
17 | COc1cc([N+](=O)[O-])cc(/C=N/NC(=O)c2ccccc2)c1O [Example 155] | 1.9
18 | COc1cc(Br)cc(/C=N/NC(=O)c2ccccc2)c1O [Example 156] | 7.4
19 | Cc1ccccc1C(=O)N/N=C/c1cc(Cl)ccc1O [Example 157] | 7.8
20 | Cc1ccccc1C(=O)N/N=C/c1cc(Br)ccc1O [Example 158] | 6.2
21 | O=C(N/N=C/c1cc(Br)ccc1O)c1ccccc1Br [Example 160] | 3.4

Same assay, conditions: compound 0.05 μg/mL, copper-plus medium (CuCl2.2H2O), 72 h at 25° C.

Row | SMILES | LEPTNO % Inhn. Plus Copper Observed [%]
22 | O=C(N/N=C/c1cc(Br)cc(Br)c1O)c1ccc(Cl)cc1 [Example 120] | 98.2
23 | O=C(N/N=C/c1cc(Br)cc(Br)c1O)c1cccc(Cl)c1 [Example 122] | 98.7
24 | O=C(Cc1ccc(F)cc1)N/N=C/c1cc(Cl)cc(Cl)c1O [Example 126] | 92.4
25 | C/C(=N\NC(=O)c1ccccc1[N+](=O)[O-])c1ccccc1O [Example 127] | 97.1
26 | C/C(=N\NC(=O)Cc1ccccc1)c1ccccc1O [Example 128] | 88.6
27 | CC/C(=N\NC(=O)c1ccccc1)c1ccccc1O [Example 130] | 98.6
28 | C/C(=N\NC(=O)c1ccc(Br)cc1)c1cc(Cl)cc(Cl)c1O [Example 139] | 97.1
29 | O=C(N/N=C/c1cc(Br)cc([N+](=O)[O-])c1O)c1ccccc1 [Example 144] | 98.5
30 | O=C(N/N=C/c1cccc([N+](=O)[O-])c1O)c1ccccc1 [Example 145] | 97.2
31 | COc1ccc(/C=N/NC(=O)c2ccccc2)c(O)c1 [Example 147] | 95.6
32 | O=C(N/N=C/c1cc(Br)ccc1O)c1ccccc1 [Example 148] | 97.9
33 | COc1cccc(/C=N/NC(=O)c2ccccc2)c1O [Example 149] | 97.1
34 | O=C(N/N=C/c1cc(Cl)cc([N+](=O)[O-])c1O)c1ccccc1 [Example 150] | 97.5
35 | O=C(N/N=C/c1cc([N+](=O)[O-])ccc1O)c1ccccc1 [Example 152] | 89.1
36 | O=C(N/N=C/c1cc([N+](=O)[O-])cc(Br)c1O)c1ccccc1 [Example 153] | 97.0
37 | COc1ccc(O)c(/C=N/NC(=O)c2ccccc2)c1 [Example 154] | 70.7
38 | COc1cc([N+](=O)[O-])cc(/C=N/NC(=O)c2ccccc2)c1O [Example 155] | 78.3
39 | COc1cc(Br)cc(/C=N/NC(=O)c2ccccc2)c1O [Example 156] | 94.8
40 | Cc1ccccc1C(=O)N/N=C/c1cc(Cl)ccc1O [Example 157] | 96.9
41 | Cc1ccccc1C(=O)N/N=C/c1cc(Br)ccc1O [Example 158] | 96.9
42 | O=C(N/N=C/c1cc(Br)ccc1O)c1ccccc1Br [Example 160] | 96.1

Tested on: Phytophthora infestans
Assay: not given
Type: in vivo, Phytophthora infestans on tomato
Conditions: hydrazone 50 ppm + 50 μM CuCl2.2H2O, applied 24 h before inoculation, assessed 7 days after inoculation, tomato

Row | SMILES | TLB % Control [%]
43 | O=C(N/N=C/c1cc(Br)cc(Br)c1O)c1ccc(Cl)cc1 [Example 120] | 92.6
44 | O=C(N/N=C/c1cc(Br)cc(Br)c1O)c1cccc(Cl)c1 [Example 122] | 92.7
45 | O=C(Cc1ccc(F)cc1)N/N=C/c1cc(Cl)cc(Cl)c1O [Example 126] | 73.0
46 | C/C(=N\NC(=O)c1ccccc1[N+](=O)[O-])c1ccccc1O [Example 127] | 40.0
47 | C/C(=N\NC(=O)Cc1ccccc1)c1ccccc1O [Example 128] | 38.0
48 | CC/C(=N\NC(=O)c1ccccc1)c1ccccc1O [Example 130] | 50.8
49 | C/C(=N\NC(=O)c1ccc(Br)cc1)c1cc(Cl)cc(Cl)c1O [Example 139] | 93.0
50 | O=C(N/N=C/c1cc(Br)cc([N+](=O)[O-])c1O)c1ccccc1 [Example 144] | 87.0
51 | O=C(N/N=C/c1cccc([N+](=O)[O-])c1O)c1ccccc1 [Example 145] | 55.9
52 | COc1ccc(/C=N/NC(=O)c2ccccc2)c(O)c1 [Example 147] | 13.5
53 | O=C(N/N=C/c1cc(Br)ccc1O)c1ccccc1 [Example 148] | 72.9
54 | COc1cccc(/C=N/NC(=O)c2ccccc2)c1O [Example 149] | 22.1
55 | O=C(N/N=C/c1cc(Cl)cc([N+](=O)[O-])c1O)c1ccccc1 [Example 150] | 87.5
56 | O=C(N/N=C/c1cc([N+](=O)[O-])ccc1O)c1ccccc1 [Example 152] | 26.0
57 | O=C(N/N=C/c1cc([N+](=O)[O-])cc(Br)c1O)c1ccccc1 [Example 153] | 34.6
58 | COc1ccc(O)c(/C=N/NC(=O)c2ccccc2)c1 [Example 154] | 36.6
59 | COc1cc([N+](=O)[O-])cc(/C=N/NC(=O)c2ccccc2)c1O [Example 155] | 32.0
60 | COc1cc(Br)cc(/C=N/NC(=O)c2ccccc2)c1O [Example 156] | 51.5
61 | Cc1ccccc1C(=O)N/N=C/c1cc(Cl)ccc1O [Example 157] | 61.8
62 | Cc1ccccc1C(=O)N/N=C/c1cc(Br)ccc1O [Example 158] | 84.7
63 | O=C(N/N=C/c1cc(Br)ccc1O)c1ccccc1Br [Example 160] | 65.5
